The values below come from patent US20250195521A1 (Revolution Medicines, Inc., priority 2020, published 2025).

Like-named read-outs stand apart in the source and are kept apart here.

A word on the IC50: it is the concentration that gives 50% inhibition.

Assay [1] concerns Capan-1 cells (K-Ras G12V). As to the kind of experiment: CellTiter-Glo cell viability, Capan-1. As to conditions: K-Ras G12V, 5-day treatment, read-out: Capan-1 Cell Viability IC50. The format is cell-based, human. The procedure, abridged:
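Compounds dispensed directly onto seeded cells; on day 5 plates equilibrated ~30 min to room temperature and luminescence read. Signal normalized to DMSO average (%) and fitted by four-parameter logistic.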

For another assay, the target named is KRAS G12S (Homo sapiens (Human), UniProt P01116+P62937, G12S). Description: Ras-Raf disruption/FRET/MOA assay (BRAF RBD, Cyclophilin A). The format is biochemical. As to conditions: read-out: KRAS G12S FRET IC50. The procedure:
(§1) Compound is present in plate wells as a 10-point 3-fold dilution series starting at a final concentration of 30 μM. After incubation at 25° C. for 3 hours, a mixture of Anti-His Eu—W1024 and anti-GST allophycocyanin is then added to assay sample wells at final concentrations of 10 nM and 50 nM, respectively, and the reaction incubated for an additional 1.5 hours. […] Compounds that facilitate disruption of a Ras: RAF complex are identified as those eliciting a decrease in the TR-FRET ratio relative to DMSO control wells.
(§2) Disruption of B-Raf Ras-Binding Domain (BRAF^RBD) Interaction with K-Ras by Compounds of the Invention (Also Called a FRET Assay or an MOA Assay)
(§3) Note—The following protocol describes a procedure for monitoring disruption of K-Ras G12C (GMP-PNP) binding to BRAF^RBD by a compound of the invention. This protocol may also be executed substituting other Ras proteins or nucleotides.
(§4) The purpose of this biochemical assay was to measure the ability of test compounds to facilitate ternary complex formation between a nucleotide-loaded K-Ras isoform and Cyclophilin A; the resulting ternary complex disrupts binding to a BRAF^RBD construct, inhibiting K-Ras signaling through a RAF effector. Data is reported as IC50 values.
(§5) In assay buffer containing 25 mM HEPES pH 7.3, 0.002% Tween20, 0.1% BSA, 100 mM NaCl and 5 mM MgCl2, tagless Cyclophilin A, His6-K-Ras-GMPPNP, and GST-BRAF^RBD were combined in a 384-well assay plate at final concentrations of 25 μM, 12.5 nM and 50 nM, respectively. Compound was present in plate wells as a 10-point 3-fold dilution series starting at a final concentration of 30 μM. After incubation at 25° C. for 3 hours, a mixture of Anti-His Eu—W1024 and anti-GST allophycocyanin was then added to assay sample wells at final concentrations of 10 nM and 50 nM, respectively, and the reaction incubated for an additional 1.5 hours. […] Compounds that facilitate disruption of a K-Ras: RAF complex were identified as those eliciting a decrease in the TR-FRET ratio relative to DMSO control wells.

Another assay deals with KRAS G12D (Homo sapiens (Human), UniProt P01116+P62937, G12D). Described as above. The format is biochemical. As to conditions: read-out: KRAS G12D FRET IC50. The procedure:
as §1, §2, §3, §4, §5

Another assay deals with KRAS G12V (Homo sapiens (Human), UniProt P01116+P62937, G12V). The description is as above. Type of assay: biochemical. As to conditions: read-out: KRAS G12V FRET IC50. On the procedure: as §1, §2, §3, §4, §5
The next assay has as its target KRAS G13C (Homo sapiens (Human), UniProt P01116+P62937, G13C). The description is as above. Type of assay: biochemical. As to conditions: read-out: KRAS G13C FRET IC50. The procedure: as §1, §2, §3, §4, §5
The target in the next assay is NRAS G12C (Homo sapiens (Human), UniProt P01111+P62937, G12C). The assay is described as above. The format is biochemical. Particulars: read-out: NRAS G12C FRET data IC50. On the procedure:
as §1, §2, §3, §4, §5

The target of a further assay is KRAS WT (Homo sapiens (Human), UniProt P01116+P62937). The assay is described as above. The format is biochemical. As to conditions: read-out: KRAS WT FRET data IC50. The procedure: as §1, §2, §3, §4, §5
The next assay has as its target KRAS G13D (Homo sapiens (Human), UniProt P01116+P62937, G13D). The assay is described as above. As to conditions: read-out: KRAS G13D FRET data IC50. Type of assay: biochemical. The procedure:
as §1, §2, §3, §4, §5

In another assay the target is KRAS G12C (Homo sapiens (Human), UniProt P01116+P62937, G12C). The assay is described as above. Particulars: read-out: KRAS G12C FRET IC50. Type of assay: biochemical. The procedure: as §1, §2, §3, §4, §5
KRAS G12C, sequence (P01116-2 other isoform, or with tags, fused parts or gaps G12C): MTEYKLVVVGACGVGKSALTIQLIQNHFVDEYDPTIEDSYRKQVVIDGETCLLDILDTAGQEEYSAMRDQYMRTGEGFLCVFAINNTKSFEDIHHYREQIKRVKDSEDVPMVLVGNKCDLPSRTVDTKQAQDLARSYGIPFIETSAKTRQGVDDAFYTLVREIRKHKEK
KRAS G12C, sequence (P62937 whole entry): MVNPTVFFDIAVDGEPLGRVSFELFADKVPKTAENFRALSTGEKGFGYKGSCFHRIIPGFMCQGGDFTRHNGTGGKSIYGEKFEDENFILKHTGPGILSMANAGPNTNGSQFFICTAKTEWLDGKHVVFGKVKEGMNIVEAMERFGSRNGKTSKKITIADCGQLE

KRAS G12D, sequence (P01116 other isoform, or with tags, fused parts or gaps G12D): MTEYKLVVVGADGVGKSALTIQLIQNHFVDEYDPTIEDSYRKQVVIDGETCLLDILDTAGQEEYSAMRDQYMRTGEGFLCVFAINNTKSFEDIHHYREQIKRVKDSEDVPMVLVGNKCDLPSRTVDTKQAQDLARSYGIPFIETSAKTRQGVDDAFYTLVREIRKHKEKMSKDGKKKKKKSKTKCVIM
KRAS G12D, sequence (P62937 whole entry): as the sequence (P62937 whole entry) above
KRAS G12V, sequence (P01116 other isoform, or with tags, fused parts or gaps G12V): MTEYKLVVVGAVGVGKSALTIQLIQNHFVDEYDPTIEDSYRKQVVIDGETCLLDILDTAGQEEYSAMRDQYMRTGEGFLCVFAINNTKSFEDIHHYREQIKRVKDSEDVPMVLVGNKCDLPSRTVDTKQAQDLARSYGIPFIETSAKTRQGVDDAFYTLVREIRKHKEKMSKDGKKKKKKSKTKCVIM
KRAS G12V, sequence (P62937 whole entry): as the sequence (P62937 whole entry) above
NRAS G12C, sequence (P01111 whole entry G12C): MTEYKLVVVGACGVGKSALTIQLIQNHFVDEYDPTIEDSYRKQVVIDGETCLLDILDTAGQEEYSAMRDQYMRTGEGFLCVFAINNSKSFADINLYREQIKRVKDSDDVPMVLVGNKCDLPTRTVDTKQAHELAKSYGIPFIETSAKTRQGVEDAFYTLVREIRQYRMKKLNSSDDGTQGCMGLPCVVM
NRAS G12C, sequence (P62937 whole entry): as the sequence (P62937 whole entry) above
KRAS G13C, sequence (P01116 other isoform, or with tags, fused parts or gaps G13C): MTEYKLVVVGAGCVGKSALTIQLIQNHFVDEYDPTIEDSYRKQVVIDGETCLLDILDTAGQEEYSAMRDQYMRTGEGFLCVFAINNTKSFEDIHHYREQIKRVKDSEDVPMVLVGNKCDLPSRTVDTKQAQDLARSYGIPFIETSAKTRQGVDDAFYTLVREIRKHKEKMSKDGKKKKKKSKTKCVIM
KRAS G13C, sequence (P62937 whole entry): as the sequence (P62937 whole entry) above
KRAS WT, sequence (P01116 other isoform, or with tags, fused parts or gaps): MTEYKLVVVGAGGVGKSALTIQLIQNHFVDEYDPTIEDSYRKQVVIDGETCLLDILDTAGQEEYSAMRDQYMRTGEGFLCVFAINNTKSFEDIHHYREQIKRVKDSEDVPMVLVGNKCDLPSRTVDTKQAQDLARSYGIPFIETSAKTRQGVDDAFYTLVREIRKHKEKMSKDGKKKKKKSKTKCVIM
KRAS WT, sequence (P62937 whole entry): as the sequence (P62937 whole entry) above
KRAS G13D, sequence (P01116 other isoform, or with tags, fused parts or gaps G13D): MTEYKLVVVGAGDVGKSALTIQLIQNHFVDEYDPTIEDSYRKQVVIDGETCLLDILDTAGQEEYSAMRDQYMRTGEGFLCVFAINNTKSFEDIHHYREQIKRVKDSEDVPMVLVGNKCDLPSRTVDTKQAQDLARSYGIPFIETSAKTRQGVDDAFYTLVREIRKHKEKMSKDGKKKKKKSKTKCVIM
KRAS G13D, sequence (P62937 whole entry): as the sequence (P62937 whole entry) above
KRAS G12S, sequence (P01116 other isoform, or with tags, fused parts or gaps G12S): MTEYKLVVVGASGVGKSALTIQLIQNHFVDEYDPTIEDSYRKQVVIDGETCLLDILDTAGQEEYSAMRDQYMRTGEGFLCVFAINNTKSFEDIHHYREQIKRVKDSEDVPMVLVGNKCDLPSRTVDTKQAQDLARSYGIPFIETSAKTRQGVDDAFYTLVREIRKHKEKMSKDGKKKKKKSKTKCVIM
KRAS G12S, sequence (P62937 whole entry): as the sequence (P62937 whole entry) above

`CCn1c(-c2cccnc2[C@H](C)OC)c2c3cc(ccc31)-c1cc(O)cc(c1)C[C@H](NC(=O)[C@H](C(C)C)N(C)C(=O)OCc1ccccc1)C(=O)N1CCC[C@H](N1)C(=O)OCC(C)(C)C2` [Compound A185]: the IC50 in assay [1] (Homo sapiens, CAPAN-1, 120 h) was 1 to 10 µM; at KRAS G12S, 1 to 10 µM; on KRAS G12D, > 10 µM; on KRAS G12V it was 1 to 10 µM; on KRAS G13C it was 0.1 to 1 µM; at NRAS G12C it was 1 to 10 µM. In addition, the IC50 on KRAS WT, on KRAS G13D and at KRAS G12C was 1 to 10 µM in each case.
For the molecule `CCn1c(-c2cccnc2[C@H](C)OC)c2c3cc(ccc31)-c1csc(n1)C[C@H](NC(=O)[C@H](C(C)C)N(C)C(=O)N1CC(OC)C1)C(=O)N1CCC[C@H](N1)C(=O)OCC(C)(C)C2` [Compound A205], the IC50 in assay [1] is 0.01 to 0.1 µM; on KRAS G12S it was 0.1 to 1 µM; on KRAS G12D, 0.1 to 1 µM; at KRAS G12V, 0.1 to 1 µM; on KRAS G13C, 0.1 to 1 µM; on NRAS G12C, 0.01 to 0.1 µM. Also, the half-inhibitory concentration (IC50) was in the range of 0.1 to 1 µM on KRAS WT, 0.1 to 1 µM at KRAS G13D and 0.01 to 0.1 µM at KRAS G12C.
As to `CCn1c(-c2cccnc2[C@H](C)OC)c2c3cc(ccc31)-c1cccc(c1)C[C@H](NC(=O)[C@H](C(C)C)N(C)C(=O)[C@@H]1CCN(C3COC3)C1)C(=O)N1CCC[C@H](N1)C(=O)OCC(C)(C)C2` [Compound A206], the IC50 in [1] (Homo sapiens, CAPAN-1, 120 h) was > 10 µM; at KRAS G12S, > 10 µM; on KRAS G12D, > 10 µM; on KRAS G12V it was > 10 µM; at KRAS G13C, 1 to 10 µM; on NRAS G12C it was 1 to 10 µM. Besides, the IC50 on KRAS WT, on KRAS G13D and at KRAS G12C was 1 to 10 µM each time.
As to `CCn1c(-c2cccnc2[C@H](C)OC)c2c3cc(ccc31)-c1csc(n1)C[C@H](NC(=O)[C@H](C(C)C)N1CCC3(CCN(C)C3)C1=O)C(=O)N1CCC[C@H](N1)C(=O)OCC(C)(C)C2` (stereo partly drawn) [Compound A213], the IC50 in assay [1] (Homo sapiens, CAPAN-1, 120 h) is > 10 µM; on KRAS G12S it was 1 to 10 µM; on KRAS G12D it was 1 to 10 µM; at KRAS G12V, > 10 µM; on KRAS G13C, 1 to 10 µM; at NRAS G12C, 1 to 10 µM. The IC50 at KRAS WT, on KRAS G13D and at KRAS G12C was 1 to 10 µM each time.
Regarding `CCn1c(-c2cccnc2[C@H](C)OC)c2c3cc(ccc31)-c1cc(O)cc(c1)C[C@H](NC(=O)[C@H](C(C)C)N(C)C(=O)[C@@H]1NC[C@@H]3C[C@@H]31)C(=O)N1CCC[C@H](N1)C(=O)OCC(C)(C)C2` [Compound A217], the IC50 is 0.1 to 1 µM in assay [1] (Homo sapiens, CAPAN-1, 120 h); 0.01 to 0.1 µM on KRAS G12S; 0.1 to 1 µM on KRAS G12D; 0.1 to 1 µM at KRAS G12V; 0.01 to 0.1 µM at KRAS G13C; 0.01 to 0.1 µM on NRAS G12C. Also, the IC50 at KRAS WT, at KRAS G13D and on KRAS G12C was 0.01 to 0.1 µM in each case.
For the molecule `CCn1c(-c2cccnc2[C@H](C)OC)c2c3cc(ccc31)-c1cc(O)cc(c1)C[C@H](NC(=O)[C@H](C(C)C)N(C)C(=O)C1CCCC1)C(=O)N1CCC[C@H](N1)C(=O)OCC(C)(C)C2` [Compound A219], the half-maximal inhibitory concentration (IC50) in assay [1] (Homo sapiens, CAPAN-1, 120 h) was 0.1 to 1 µM; at KRAS G12S, 0.01 to 0.1 µM; at KRAS G12D, 0.1 to 1 µM; at KRAS G12V, 0.01 to 0.1 µM; on KRAS G13C, 0.01 to 0.1 µM; at NRAS G12C it was 0.01 to 0.1 µM. In addition, the IC50 on KRAS WT was in the range of 0.01 to 0.1 µM; at KRAS G13D, 0.1 to 1 µM; at KRAS G12C, 0.01 to 0.1 µM.
